{"source": "patent US5998487A", "about": "“Anti-inflammatory and antibacterial benzyl phenol agents and their use in oral compositions” (Colgate-Palmolive Company, priority 1998, dated 1999)", "key": {"[1]": {"test_system": "caries", "settings": "hamsters; Stralfors 1967; cited from earlier work"}, "[2]": {"molecular_target": "COX-1 (Ovis aries, UniProt P05979)", "sequence (P05979 25-600)": "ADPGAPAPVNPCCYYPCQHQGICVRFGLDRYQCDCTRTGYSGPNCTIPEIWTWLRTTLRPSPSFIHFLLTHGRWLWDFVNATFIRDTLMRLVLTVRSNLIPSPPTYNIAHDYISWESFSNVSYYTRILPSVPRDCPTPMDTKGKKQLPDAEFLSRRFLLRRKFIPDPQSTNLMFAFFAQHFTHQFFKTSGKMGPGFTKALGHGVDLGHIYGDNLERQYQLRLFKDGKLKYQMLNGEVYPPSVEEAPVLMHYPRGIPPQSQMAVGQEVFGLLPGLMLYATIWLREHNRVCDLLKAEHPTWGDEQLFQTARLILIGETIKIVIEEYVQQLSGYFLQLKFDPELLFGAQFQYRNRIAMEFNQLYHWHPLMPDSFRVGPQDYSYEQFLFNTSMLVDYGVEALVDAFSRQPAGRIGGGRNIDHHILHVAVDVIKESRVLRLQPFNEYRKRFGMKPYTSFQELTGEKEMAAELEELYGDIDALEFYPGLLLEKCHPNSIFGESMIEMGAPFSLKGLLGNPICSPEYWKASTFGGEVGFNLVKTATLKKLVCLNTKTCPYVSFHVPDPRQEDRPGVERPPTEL", "assay": "COX-1 inhibition, oxygen utilization assay", "format": "biochemical", "settings": "for pIC50: oxygen consumption, read-out: IC50 Conc. to Inhibit 50% of COX-1 Activity", "text": "(§1) The efficacy of the AAB compounds of the present invention as inhibitors of COX-1 and COX-2 enzymes was shown using the oxygen utilization assay described in Dewhirst, Prostaglandins, 22, 209-222 (1980). Varying concentrations of 2-t-butyl-4-(4-t-butylbenzyl)-phenol, a compound of the present invention were selected that inhibit the enzymatic activity from 20% to about 80%, as compared to a positive control, no inhibitor. These varying concentrations of 2-t-butyl-4-(4-t-butylbenzyl)-phenol were independently added to COX-1 and COX-2 enzymes in a closed system, in which the enzymes were reacted in a reaction requiring molecular oxygen. The degree of inhibition of the COX enzyme activity was measured by the reduction in monitored oxygen consumption as a function of time within the closed system. The COX enzyme IC50, concentration of 2-t-butyl-4-(4-t-butylbenzyl)-phenol found to inhibit 50% of the activity of the COX-1 and COX-2 enzymes is recorded in Table II.\n(§2) For comparison, the COX enzyme IC50 assay methodology of Example III was repeated using triclosan, an agent known to inhibit PG by inhibiting the production of its COX-1 and COX-2 precursors."}, "[3]": {"test_system": "A. viscosus", "assay": "MIC (Minimum Inhibitory Concentration) test", "format": "cell-based", "settings": "for MIC: Actinomyces viscosus, read-out: MIC (Bacterial Minimum Inhibitory Concentration)", "method": "The smaller the MIC, the greater the antibacterial activity of the compound being tested.\nUsing a 96 well microtiter plate, a 100 μl of trypticase soy broth (TSB) media, available from BBL, Cockeysville, Md. 21030, was placed in each of the 12 columns within the plate. Using a octapette pipettor, the 2-t-butyl-4-(4-t-butylbenzyl)-phenol compound was serially diluted to each of the 12 columns, from 125 ppm in the first well of each column, to 0.061 ppm in the 12th (each column containing 1/2 the concentration of 2-t-butyl-4-(4-t-butylbenzyl)-phenol compound than the previous column). To each of the 12 columns an additional 100 μl of TBS was added containing A. viscosus bacterium, a common oral bacteria, at a concentration optical density of 0.1, at 610 nm. The plate was then sealed and incubated for 24 hours at 37° C.\nThe procedure of Example IV was simultaneously run with water as a negative control and using a known efficacious antibacterial agent, triclosan, as a comparative and positive control. The MIC determined for the triclosan is also recorded in Table III for comparative purposes."}, "[4]": {"molecular_target": "T1, COX-2 (Homo sapiens, UniProt P35354)", "T1 sequence (P35354 18-604)": "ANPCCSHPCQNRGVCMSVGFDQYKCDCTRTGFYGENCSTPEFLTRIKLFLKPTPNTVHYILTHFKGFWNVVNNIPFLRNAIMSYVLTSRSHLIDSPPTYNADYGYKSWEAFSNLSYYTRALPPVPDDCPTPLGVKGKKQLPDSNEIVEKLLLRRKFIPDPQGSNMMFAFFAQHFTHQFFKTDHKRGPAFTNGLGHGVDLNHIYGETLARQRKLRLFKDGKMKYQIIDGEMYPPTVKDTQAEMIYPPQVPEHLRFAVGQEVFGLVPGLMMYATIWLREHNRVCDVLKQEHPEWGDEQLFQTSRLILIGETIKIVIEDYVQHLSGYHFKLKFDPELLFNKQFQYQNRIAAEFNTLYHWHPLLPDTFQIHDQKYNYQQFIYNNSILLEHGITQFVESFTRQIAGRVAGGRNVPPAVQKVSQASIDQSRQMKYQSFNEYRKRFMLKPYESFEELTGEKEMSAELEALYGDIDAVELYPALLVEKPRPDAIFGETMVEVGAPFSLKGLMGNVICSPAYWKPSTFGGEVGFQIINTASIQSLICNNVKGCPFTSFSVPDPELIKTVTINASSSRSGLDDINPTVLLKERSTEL", "assay": "COX-2 inhibition, oxygen utilization assay", "format": "biochemical", "text": "as §1, §2"}, "[5]": {"test_system": "PGE2 production in Human Embryo Palatal Mesenchyme cells (HEPM, ATCC #1486)", "assay": "Inhibition of PGE2 production in IL-1β-stimulated HEPM cells", "format": "cell-based", "settings": "for pIC50: Homo sapiens, read-out: IC50 Concentration to Inhibit 50% of PGE2", "method": "Specifically, Human Embryo Palatal Mesenchyme cells (HEPM, ATCC #1486) cells were grown in high glycose Delbeco's Modified Eagles Medium (DMEM, Gibco/BRL-Life Technologies, Grand Island, N.Y.) containing 10% heat inactivated fetal bovine serum (FBS, Gibco/BRL). The cells were grown at 37° C., 100% humidity, and 10% CO2. Prior to analysis, the cells were subcultured into 24 well plates, to form 12 sets of duplicate cultures, and allowed to become 70-90% confluent. On day one of the experiment, the cells were washed three times with serum free media (containing 0.5% bovine serum albumin, BSA), followed by replacement with BSA containing media alone (the negative control) in the first culture set; media and 1.0 ng/mL IL-1β (the positive control, without any inhibitor) in the second culture set; and media, 1.0 ng/mL IL-1β, and a range of from 0.01 μM to 50 μM of 2-t-butyl-4-(4-t-butylbenzyl)-phenol in the third thru twelfth culture sets. Exposure was for 24 hours at which time the media was removed from each well, the media's pH was adjusted to 3.5 with HCl, and the media was analyzed for PGE2 produced using a PerSeptive Diagnostics TiterFluor PGE2 EIA kit, available from PerSeptive Biosystems, Framingham, Mass. 01701.\nPrior to determining the PGE2 inhibitory effect of the 2-t-butyl-4-(4-t-butylbenzyl)-phenol compound of the present invention, the results must be normalized with respect to the number of viable cells in each culture well; more or less cells producing correspondingly more or less PGE2. […] Once dissolved, the spectroscopic absorbance of 100 μl of the isopropanol solution from each culture well was determined at 570 nm. A normalization factor, the cell concentration ratio, was calculated for each culture well, by dividing the absorbance of the particular culture well's isopropanol solution by the average absorbance of the unstimulated negative control set's isopropanol solutions. The PGE2 originally determined for each culture well was then normalized by being […] the cell concentration ratio calculated for that particular culture well. […]"}, "[6]": {"test_system": "microbial challenge", "settings": "EP 0 528 468 A1; cited from earlier work"}, "[7]": {"test_system": "cyclooxygenase", "settings": "EP 0 528 468 A1; cited from earlier work"}}, "note": "pIC50: −log10 of the molar value. Where two headings read alike, the source gives them in different places.", "data": [{"smiles": "O=c1c(O)c(-c2ccc(O)c(O)c2)oc2cc(O)cc(O)c12", "note": "[quercetin, pentahydroxyflavone]", "values": [{"measurement": "adverse weight loss", "setting": "[1]", "result": "without adverse weight loss"}]}, {"smiles": "O=C(O)C=Cc1ccc(O)c(O)c1", "note": "[caffeic acid, 3,4-dihydroxycinnamic acid]", "values": [{"measurement": "adverse weight loss", "setting": "[1]", "result": "without adverse weight loss"}, {"measurement": "inhibition of caries", "setting": "[1]", "result": "inhibit caries"}]}, {"smiles": "CC(C)(C)c1ccc(Cc2ccc(O)c(C(C)(C)C)c2)cc1", "note": "[2-t-butyl-4-(4-t-butylbenzyl)-phenol]", "values": [{"measurement": "pIC50", "setting": "[2]", "result": 4.76}, {"measurement": "efficacy as COX-1 inhibitor relative to triclosan", "setting": "[2]; vs triclosan, from Table II", "result": "over 2 times"}, {"measurement": "MIC", "setting": "[3]; A. viscosus, TSB, 24 hours, 37° C.", "result": 0.24, "unit": "µg/mL"}, {"measurement": "MIC relative to that of triclosan", "setting": "[3]; vs triclosan, from Table III", "result": "about 7%"}, {"measurement": "pIC50", "setting": "[4]; oxygen consumption, read-out: IC50 Conc. to Inhibit 50% of COX-2 Activity", "result": 4.00}, {"measurement": "efficacy as COX-2 inhibitor relative to triclosan", "setting": "[4]; vs triclosan, from Table II", "result": "over 2 times"}, {"measurement": "pIC50", "setting": "[5]; HEPM cells, 1.0 ng/mL IL-1β, 24 hours, normalized to viable cells (MTT)", "result": 5.43}, {"measurement": "efficacy as PGE2 inhibitor relative to triclosan", "setting": "[5]; vs triclosan, from Table I", "result": "~2", "unit": "times"}]}, {"smiles": "Oc1cc(Cl)ccc1Oc1ccc(Cl)cc1Cl", "note": "[Triclosan, 2',4,4'-trichloro-2-hydroxy-diphenyl-ether]", "values": [{"measurement": "pIC50", "setting": "[2]", "result": 4.37}, {"measurement": "MIC", "setting": "[3]; 24 h", "result": 3.61, "unit": "µg/mL"}, {"measurement": "reduction of microbial challenge", "setting": "[6]", "result": "reduces microbial challenge"}, {"measurement": "pIC50", "setting": "[4]", "result": 3.64}, {"measurement": "inhibition of cyclooxygenase activity", "setting": "[7]", "result": "inhibits cyclooxygenase activity"}, {"measurement": "pIC50", "setting": "[5]; 24 h", "result": 5.15}]}, {"smiles": "O=C(O)c1ccc(O)c(O)c1", "note": "[protocatechuic acid, 3,4-dihydroxybenzoic acid]", "values": [{"measurement": "adverse weight loss", "setting": "[1]", "result": "without adverse weight loss"}, {"measurement": "inhibition of caries", "setting": "[1]", "result": "inhibit caries"}]}]}
